We go through 1 compound from US9943529B2, “Methods for reducing cellular proliferation and treating certain diseases” (BRIGHAM YOUNG UNIVERSITY, priority 2013, dated 2018).

Each structure is given as a SMILES string.

What is called GI50 is the concentration that inhibits growth by half. Lower therefore signals more potent growth inhibition. In general, TGI refers to the concentration giving total growth inhibition.

In one assay the test system is NCI-H226. The assay can be described thus: cells. The following applies: Homo sapiens, NCI-H226, 48 h.
For the next assay, the system named is MOLT-4. The assay can be described thus: NCI screen antiproliferative activity, sulforhodamine B, Leukemia panel. It counts as cell-based, human. Particulars: 48 hours, five 10-fold dilutions starting from 100 μM.
Another assay concerns SNB-75. Particulars: 48 hours, five 10-fold dilutions starting from 100 μM.
Another assay has as its system OVCAR-8. Particulars: 48 hours, five 10-fold dilutions starting from 100 μM.
A further assay has as its system NCI-H23. In words: cells. The following applies: Homo sapiens, NCI-H23, 48 h.
In the next assay the test system is ACHN. The assay can be described thus: cells. Particulars: Homo sapiens, 48 h.
A further assay deals with DU-145. The following applies: 48 hours, five 10-fold dilutions starting from 100 μM.
The test system of assay [1] is HCT-15. In words: cells. The following applies: Homo sapiens, HCT-15, 48 h.
In another assay the test system is IGROV1. Particulars: 48 hours, five 10-fold dilutions starting from 100 μM.
The next assay concerns SR. In words: NCI screen antiproliferative activity, sulforhodamine B, Leukemia panel. Type of assay: cell-based, human. The following applies: 48 hours, five 10-fold dilutions starting from 100 μM.
A further assay concerns HS 578T. In words: NCI screen antiproliferative activity, sulforhodamine B, Breast Cancer panel. Type of assay: cell-based, human. The following applies: 48 hours, five 10-fold dilutions starting from 100 μM.
In another assay the test system is SF-268. Particulars: 48 hours, five 10-fold dilutions starting from 100 μM.
The next assay has as its system SK-MEL-2. The assay can be described thus: cells. Particulars: Homo sapiens, SK-MEL-2, 48 h.
The subject of assay [2] is HCT-15. Particulars: 48 hours, five 10-fold dilutions starting from 100 μM.

For `CCCCCCCCNCCC[C@@H](C)[C@H]1CC[C@H]2[C@@H]3[C@H](OCCCN)C[C@@H]4C[C@H](OCCCN)CC[C@]4(C)[C@H]3C[C@H](OCCCN)[C@]12C` [CSA-13], the GI50 in the assay on NCI-H226 was 2220 nM; in the assay with MOLT-4 (Homo sapiens), 1250 nM; with NCI-H23, 1240 nM; in the assay on ACHN it was 1480 nM; in the assay with HCT-15 [1], 2630 nM; in the assay with SR (Homo sapiens), 272 nM. Also, the GI50 in the assay on HS 578T (Homo sapiens) came out at 854 nM; in the assay on SK-MEL-2, 4510 nM. Further, the CC50 is 66800 nM in the assay with NCI-H226 (read-out: LC50); 7870 nM in the assay with NCI-H23 (read-out: LC50); 9170 nM in the assay with ACHN (read-out: LC50); 63900 nM in the assay on HCT-15 [1] (read-out: LC50); more than 100000 nM in the assay with SK-MEL-2 (read-out: LC50). The TGI is 2930 nM with MOLT-4; 5930 nM in the assay with SNB-75; 4010 nM in the assay on OVCAR-8; 2350 nM with DU-145; 3540 nM with IGROV1; 2290 nM in the assay on SR. In addition, the TGI with HS 578T is 2350 nM; in the assay on SF-268, 3700 nM; in the assay with HCT-15 [2], 14800 nM.
